Experimental data from patent publication US9187472B2 (AbbVie Inc., priority 2012, dated 2015).
pIC50: −log10 of the molar value.

What follows are compounds tested on PC3 cells (assay: NAMPT Cell Proliferation Assay). Conditions: Homo sapiens, PC-3, 120 h, 5 days incubation, cell viability by Cell Titer Glo.
Type: cell-based
Outline: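 Proliferation of PC3 cells treated 5 days with a 10-fold compound series (top 10 μM) was quantified by Cell Titer Glo luminescence; IC50s were fitted from percent inhibition.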

Row | pIC50 | Structure (SMILES)
1 | 6.80 | CC1(Cn2cc(-c3ccc(C(=O)NCc4ccn5ccnc5c4)s3)cn2)CCN(C(=O)CSC[C@H](N)C(=O)O)CC1 [Example 1164, S-(2-{4-[(4-{5-[(imidazo[1,2-a]pyridin-7-ylmethyl)carbamoyl]thiophen-2-yl}-1H-pyrazol-1-yl)methyl]-4-methylpiperidin-1-yl}-2-oxoethyl)-L-cysteine]
2 | 8.00 | O=C(NCc1ccn2ccnc2c1)Nc1ccc(C2CCN(C(=O)c3ccc4scnc4c3)CC2)cc1 [Example 1122, 1-{4-[1-(1,3-benzothiazol-5-ylcarbonyl)piperidin-4-yl]phenyl}-3-(imidazo[1,2-a]pyridin-7-ylmethyl)urea]
3 | 7.90 | O=C(NCc1ccc2ncnn2c1)c1ccc(C2CCN(C(=O)c3ccc(F)cc3F)CC2)s1 [Example 834, 5-[1-(2,4-difluorobenzoyl)piperidin-4-yl]-N-([1,2,4]triazolo[1,5-a]pyridin-6-ylmethyl)thiophene-2-carboxamide]
4 | 9.28 | CC1=C(C(=O)N2CCC(c3ccc(NC(=O)NCc4ccn5ccnc5c4)cc3)CC2)CCC1 [Example 941, 1-(imidazo[1,2-a]pyridin-7-ylmethyl)-3-(4-{1-[(2-methylcyclopent-1-en-1-yl)carbonyl]piperidin-4-yl}phenyl)urea]
5 | 7.25 | O=C(NCc1ccn2ccnc2c1)c1ccc(C2CCN(C(=O)c3ccc4snnc4c3)CC2)cc1 [Example 1004, 4-[1-(1,2,3-benzothiadiazol-5-ylcarbonyl)piperidin-4-yl]-N-(imidazo[1,2-a]pyridin-7-ylmethyl)benzamide]
6 | 6.19 | O=C(NCc1ccn2ccnc2c1)c1ccc(-c2cnn(CCN3CCNCC3)c2)o1 [Example 889, N-(imidazo[1,2-a]pyridin-7-ylmethyl)-5-{1-[2-(piperazin-1-yl)ethyl]-1H-pyrazol-4-yl}furan-2-carboxamide]
7 | 8.36 | CCc1cc(C(=O)N2CCC(c3ccc(NC(=O)NCc4ccn5ccnc5c4)cc3)CC2)on1 [Example 1055, 1-(4-{1-[(3-ethyl-1,2-oxazol-5-yl)carbonyl]piperidin-4-yl}phenyl)-3-(imidazo[1,2-a]pyridin-7-ylmethyl)urea]
8 | 8.01 | CC(C)n1ccc(C(=O)N2CCC(c3ccc(C(=O)NCc4ccn5ccnc5c4)cc3)CC2)n1 [Example 959, N-(imidazo[1,2-a]pyridin-7-ylmethyl)-4-(1-{[1-(propan-2-yl)-1H-pyrazol-3-yl]carbonyl}piperidin-4-yl)benzamide]
9 | 8.32 | CCc1ccc(C(=O)N2CCC(c3ccc(NC(=O)NCc4ccn5ccnc5c4)cc3)CC2)nc1 [Example 1125, 1-(4-{1-[(5-ethylpyridin-2-yl)carbonyl]piperidin-4-yl}phenyl)-3-(imidazo[1,2-a]pyridin-7-ylmethyl)urea]
10 | 5.80 | CC(C)(C(=O)Nc1ccc(C(=O)NCc2ccn3ccnc3c2)cc1)c1ccccc1 [Example 896, N-(imidazo[1,2-a]pyridin-7-ylmethyl)-4-[(2-methyl-2-phenylpropanoyl)amino]benzamide]
11 | 7.06 | O=C(Cc1ccccc1)Nc1ccc(C(=O)NCc2ccn3ccnc3c2)cc1 [Example 868, N-(imidazo[1,2-a]pyridin-7-ylmethyl)-4-[(phenylacetyl)amino]benzamide]
12 | 8.35 | N#Cc1cc(F)c(C(=O)N2CCC(c3ccc(C(=O)NCc4ccn5ccnc5c4)cc3)CC2)c(F)c1 [Example 1095, 4-[1-(4-cyano-2,6-difluorobenzoyl)piperidin-4-yl]-N-(imidazo[1,2-a]pyridin-7-ylmethyl)benzamide]
13 | 8.06 | COc1cc(C(=O)N2CCC(c3ccc(C(=O)NCc4ccn5ccnc5c4)cc3)CC2)ncc1C [Example 1100, N-(imidazo[1,2-a]pyridin-7-ylmethyl)-4-{1-[(4-methoxy-5-methylpyridin-2-yl)carbonyl]piperidin-4-yl}benzamide]
14 | 7.84 | O=C(NCc1ccn2ccnc2c1)Nc1ccc(C2CCN(C(=O)C3CCOCC3)CC2)cc1F [Example 1074, 1-{2-fluoro-4-[1-(tetrahydro-2H-pyran-4-ylcarbonyl)piperidin-4-yl]phenyl}-3-(imidazo[1,2-a]pyridin-7-ylmethyl)urea]
15 | 7.59 | O=C(NCc1ccn2ccnc2c1)Nc1ccc(C2CCN(C(=O)c3ccc4snnc4c3)CC2)cc1 [Example 1057, 1-{4-[1-(1,2,3-benzothiadiazol-5-ylcarbonyl)piperidin-4-yl]phenyl}-3-(imidazo[1,2-a]pyridin-7-ylmethyl)urea]
16 | 8.23 | COc1ccc(OC)c(C(=O)N2CCC(c3ccc(NC(=O)NCc4ccn5ccnc5c4)cc3)CC2)c1 [Example 946, 1-{4-[1-(2,5-dimethoxybenzoyl)piperidin-4-yl]phenyl}-3-(imidazo[1,2-a]pyridin-7-ylmethyl)urea]
17 | 9.56 | O=C(NCc1ccn2ccnc2c1)Nc1ccc(C2CCN(C(=O)c3ccnn3C3CCCC3)CC2)cc1 [Example 1137, 1-(4-{1-[(1-cyclopentyl-1H-pyrazol-5-yl)carbonyl]piperidin-4-yl}phenyl)-3-(imidazo[1,2-a]pyridin-7-ylmethyl)urea]

Row | pIC50 | Structure (SMILES)
18 | 8.24 | O=C(NCc1ccn2ccnc2c1)c1ccc(C2CCN(C(=O)c3cccc4ncsc34)CC2)cc1 [Example 1010, 4-[1-(1,3-benzothiazol-7-ylcarbonyl)piperidin-4-yl]-N-(imidazo[1,2-a]pyridin-7-ylmethyl)benzamide]
19 | 6.95 | N#Cc1csc(C(=O)N2CCC(c3ccc(C(=O)NCc4ccn5ccnc5c4)cc3)CC2)c1 [Example 1110, 4-{1-[(4-cyanothiophen-2-yl)carbonyl]piperidin-4-yl}-N-(imidazo[1,2-a]pyridin-7-ylmethyl)benzamide]
20 | 6.06 | O=C(CC1CCCC1)Nc1ccc(C(=O)NCc2cn3c(Cl)cnc3cn2)cc1 [Example 901, N-[(3-chloroimidazo[1,2-a]pyrazin-6-yl)methyl]-4-[(cyclopentylacetyl)amino]benzamide]
21 | 6.74 | CC(C)Cn1nccc1-c1ccc(C(=O)NCc2ccn3ccnc3c2)s1 [Example 899, N-(imidazo[1,2-a]pyridin-7-ylmethyl)-5-[1-(2-methylpropyl)-1H-pyrazol-5-yl]thiophene-2-carboxamide]
22 | 8.01 | CC(C(=O)N1CCC(c2ccc(C(=O)NCc3ccn4ccnc4c3)cc2)CC1)c1ccccc1 (stereo not shown) [Example 926, N-(imidazo[1,2-a]pyridin-7-ylmethyl)-4-[1-(2-phenylpropanoyl)piperidin-4-yl]benzamide]
23 | 8.53 | O=C(NCc1ccn2ccnc2c1)Nc1ccc(C2CCN(C(=O)c3ccnn3C(F)F)CC2)cc1 [Example 1022, 1-[4-(1-{[1-(difluoromethyl)-1H-pyrazol-5-yl]carbonyl}piperidin-4-yl)phenyl]-3-(imidazo[1,2-a]pyridin-7-ylmethyl)urea]
24 | 8.69 | N#CC1(C(=O)N2CCC(c3ccc(NC(=O)NCc4ccn5ccnc5c4)cc3)CC2)CCCC1 [Example 1030, 1-(4-{1-[(1-cyanocyclopentyl)carbonyl]piperidin-4-yl}phenyl)-3-(imidazo[1,2-a]pyridin-7-ylmethyl)urea]
25 | 7.45 | O=C(NCc1ccn2ccnc2c1)c1ccc(C2=CCN(c3cc(C(F)(F)F)ncn3)CC2)cc1 [Example 1156, N-(imidazo[1,2-a]pyridin-7-ylmethyl)-4-{1-[6-(trifluoromethyl)pyrimidin-4-yl]-1,2,3,6-tetrahydropyridin-4-yl}benzamide]
26 | 9.04 | CC(C)(CN)Cn1cc(-c2ccc(C(=O)NCc3ccn4ccnc4c3)s2)cn1 [Example 1083, 5-[1-(3-amino-2,2-dimethylpropyl)-1H-pyrazol-4-yl]-N-(imidazo[1,2-a]pyridin-7-ylmethyl)thiophene-2-carboxamide]
27 | 8.02 | O=C(NCc1ccn2ccnc2c1)Nc1ccc(C2CCN(C(=O)c3ccc4occc4c3)CC2)cc1 [Example 1144, 1-{4-[1-(1-benzofuran-5-ylcarbonyl)piperidin-4-yl]phenyl}-3-(imidazo[1,2-a]pyridin-7-ylmethyl)urea]
28 | 6.20 | CCN(CC)CCC(=O)N1CCC(c2ccc(NC(=O)NCc3ccn4ccnc4c3)cc2)CC1 [Example 950, 1-{4-[1-(N,N-diethyl-beta-alanyl)piperidin-4-yl]phenyl}-3-(imidazo[1,2-a]pyridin-7-ylmethyl)urea]
29 | 7.45 | CC(C)C(=O)N1CCC(c2ccc(NC(=O)Cc3ccn4ccnc4c3)cc2)CC1 [Example 903, 2-(imidazo[1,2-a]pyridin-7-yl)-N-{4-[1-(2-methylpropanoyl)piperidin-4-yl]phenyl}acetamide]
30 | 8.15 | CC(C)c1nc(C(=O)N2CCC(c3ccc(NC(=O)NCc4ccn5ccnc5c4)cc3)CC2)co1 [Example 1145, 1-(imidazo[1,2-a]pyridin-7-ylmethyl)-3-[4-(1-{[2-(propan-2-yl)-1,3-oxazol-4-yl]carbonyl}piperidin-4-yl)phenyl]urea]
31 | 7.02 | O=C(NCc1ccn2ccnc2c1)c1ccc(C2CCN(C(=O)c3nc4ccccc4s3)CC2)cc1 [Example 1001, 4-[1-(1,3-benzothiazol-2-ylcarbonyl)piperidin-4-yl]-N-(imidazo[1,2-a]pyridin-7-ylmethyl)benzamide]
32 | 8.68 | O=C(NCc1ccn2ccnc2c1)c1ccc(C2CCN(C(=O)C3(c4ccccn4)CC3)CC2)cc1 [Example 966, N-(imidazo[1,2-a]pyridin-7-ylmethyl)-4-(1-{[1-(pyridin-2-yl)cyclopropyl]carbonyl}piperidin-4-yl)benzamide]
33 | 7.79 | O=C(NCc1ccn2ccnc2c1)c1ccc(C2CCN(C(=O)c3ccc4occc4c3)CC2)cc1 [Example 1112, 4-[1-(1-benzofuran-5-ylcarbonyl)piperidin-4-yl]-N-(imidazo[1,2-a]pyridin-7-ylmethyl)benzamide]
34 | 8.21 | Cn1cc2c(C(=O)N3CCC(c4ccc(C(=O)NCc5ccn6ccnc6c5)cc4)CC3)cccc2n1 [Example 1116, N-(imidazo[1,2-a]pyridin-7-ylmethyl)-4-{1-[(2-methyl-2H-indazol-4-yl)carbonyl]piperidin-4-yl}benzamide]
